From article PMC9913023, “Repositioning linifanib as a potent anti-necroptosis agent for sepsis” (Cell Death Discovery, 2023)

Target: T1, RIPK1 (receptor-interacting serine/threonine-protein kinase 1) (Homo sapiens, UniProt Q13546)
T1 sequence (Q13546 1-671): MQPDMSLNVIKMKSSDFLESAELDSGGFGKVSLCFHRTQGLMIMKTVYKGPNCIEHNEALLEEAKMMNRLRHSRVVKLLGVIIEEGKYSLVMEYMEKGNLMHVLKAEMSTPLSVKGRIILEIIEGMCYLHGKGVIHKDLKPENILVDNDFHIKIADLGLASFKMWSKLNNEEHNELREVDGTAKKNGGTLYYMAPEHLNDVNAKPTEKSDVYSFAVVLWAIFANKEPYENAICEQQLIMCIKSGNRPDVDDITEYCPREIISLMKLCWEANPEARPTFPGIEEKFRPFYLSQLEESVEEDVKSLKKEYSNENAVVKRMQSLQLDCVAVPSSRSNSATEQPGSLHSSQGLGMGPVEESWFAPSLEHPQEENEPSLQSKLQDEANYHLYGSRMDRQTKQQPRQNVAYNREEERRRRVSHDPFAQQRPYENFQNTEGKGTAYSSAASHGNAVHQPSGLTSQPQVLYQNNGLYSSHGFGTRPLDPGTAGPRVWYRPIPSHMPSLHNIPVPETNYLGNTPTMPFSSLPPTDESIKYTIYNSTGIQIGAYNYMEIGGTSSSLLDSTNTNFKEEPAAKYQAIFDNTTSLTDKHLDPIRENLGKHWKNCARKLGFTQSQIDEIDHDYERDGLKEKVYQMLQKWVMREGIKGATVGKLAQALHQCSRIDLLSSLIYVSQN
Assay: ADP-Glo kinase assay with recombinant human RIPK1 ([…])
Type: biochemical

IC50: 670 nM
SMILES: Cc1ccc(F)c(NC(=O)Nc2ccc(-c3cccc4[nH]nc(N)c34)cc2)c1 [linifanib]
